# Assay results published in US20240116985A1, “STAPLED PEPTIDES AND METHODS THEREOF” (priority 2020, published 2024).
# Like-named read-outs stand apart in the source and are kept apart here.
# Columns and labels:
# [1] = target: T1, full-length beta-Catenin (Uniprot ID P35222) (Homo sapiens, UniProt P35222); assay: Fluorescence polarization IC50 (beta-catenin / 5FAM-TCF4 10-53 competition); type: binding; conditions: fluorescence polarization; read-out: beta-Catenin FP IC50
# T1 construct: 10 nM full-length beta-Catenin (Uniprot ID P35222)
# T1 sequence (P35222 1-781): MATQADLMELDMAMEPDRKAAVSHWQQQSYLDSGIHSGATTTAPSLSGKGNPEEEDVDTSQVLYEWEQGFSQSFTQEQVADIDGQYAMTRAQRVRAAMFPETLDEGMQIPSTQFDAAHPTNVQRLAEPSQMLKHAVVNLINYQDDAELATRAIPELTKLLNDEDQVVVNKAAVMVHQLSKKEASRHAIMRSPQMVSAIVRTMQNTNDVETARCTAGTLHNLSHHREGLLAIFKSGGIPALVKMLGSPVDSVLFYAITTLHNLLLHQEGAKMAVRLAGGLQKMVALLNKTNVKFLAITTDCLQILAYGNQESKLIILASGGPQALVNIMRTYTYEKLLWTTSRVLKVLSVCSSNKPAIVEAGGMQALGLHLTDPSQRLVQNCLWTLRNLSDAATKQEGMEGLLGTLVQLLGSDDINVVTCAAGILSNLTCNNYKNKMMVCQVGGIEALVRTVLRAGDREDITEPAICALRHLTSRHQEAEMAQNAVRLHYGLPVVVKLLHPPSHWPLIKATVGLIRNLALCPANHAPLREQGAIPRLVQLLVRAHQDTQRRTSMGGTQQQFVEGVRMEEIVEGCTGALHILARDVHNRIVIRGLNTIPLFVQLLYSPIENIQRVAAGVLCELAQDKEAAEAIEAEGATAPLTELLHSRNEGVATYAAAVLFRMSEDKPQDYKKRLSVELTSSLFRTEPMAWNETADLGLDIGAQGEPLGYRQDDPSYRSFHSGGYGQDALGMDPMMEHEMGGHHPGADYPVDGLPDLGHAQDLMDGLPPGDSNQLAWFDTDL
# Solubility in PBS = type: physicochemical
# How it was run: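 Read-out is the HPLC peak area of the supernatant from ultracentrifuged PBS solution, scaled against a 50 μM peptide DMSO injection; value reported as [(PBS area)/(DMSO area)]*50 uM.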
# [2] = target: T2, beta-catenin/TCF4 engagement (Homo sapiens, UniProt P35222); assay: Nano-BRET target engagement assay (B-cat-Halo & TCF4-Luc in HEK293 cells); type: cell-based; conditions: absolute IC50; read-out: NanoBRET Abs IC50
# T2 construct: expressed in transfected cells; host or cells: HEK293
# T2 sequence (P35222 1-781): T1 sequence (P35222 1-781)
compound,measurement,setting,value
"CC(=O)N1CCC[C@]12CC=CCCCC1(CCCC=CCCCOC(=O)N3CC[C@@](C(=O)N[C@@H](Cc4ccccc4Cl)C(=O)N[C@@H](Cc4csc5ccccc45)C(=O)N[C@@H](CCC(N)=O)C(N)=O)(C3)NC(=O)[C@H](CO)NC(=O)[C@H](Cc3ccccc3)NC(=O)[C@H](C)NC(=O)[C@H](CC(C)C)NC(=O)[C@H](CC(=O)O)NC(=O)[C@H](CC(=O)O)NC1=O)NC(=O)[C@H](CC1CCCCC1)NC(=O)[C@H](CC(=O)O)NC2=O (stereo partly drawn) [I-1147, Ac-PL3-Asp-Cha-B5-Asp-Asp-Leu-Ala-Phe-Ser-PyrS2-2C1F-BztA-Gln-NH2]",IC50,[1],0.01 µM
same,Solubility,Solubility in PBS; Solubility (uM),23 µM
same,IC50,[2],21.1 µM
"CC(=O)N1CCC[C@]12CC=CCCCC1(CCCC=CCCCOC(=O)N3CC[C@@](C(=O)N[C@@H](Cc4ccsc4)C(=O)N[C@@H](Cc4csc5ccccc45)C(=O)N[C@H](CO)[C@@H](C)O)(C3)NC(=O)[C@H](CCO)NC(=O)[C@H](Cc3ccccc3)NC(=O)[C@H](C)NC(=O)[C@H](C)NC(=O)[C@H](CC(=O)O)NC(=O)[C@H](CC(=O)O)NC1=O)NC(=O)[C@H](CC(C)(C)C)NC(=O)[C@H](CC(=O)O)NC2=O (stereo partly drawn) [I-1305, Ac-PL3-Asp-Npg-B5-Asp-Asp-Ala-Ala-Phe-Hse-PyrS2-3Thi-BztA-Thro1]",IC50,[1],0.006 µM
same,Solubility,Solubility in PBS; Solubility (uM),49 µM
same,IC50,[2],9.7 µM
"CC(=O)N1CCC[C@]12CC=CCCCC1(CCCC=CCCCOC(=O)N3CC[C@@](C(=O)N[C@@H](Cc4ccccc4Cl)C(=O)N[C@@H](Cc4csc5ccccc45)C(=O)N[C@H](C(N)=O)[C@@H](C)O)(C3)NC(=O)[C@H](CC(C)C)NC(=O)[C@H](Cc3ccccc3)NC(=O)[C@H](C)NC(=O)[C@H](C)NC(=O)[C@H](CC(=O)O)NC(=O)[C@H](CC(=O)O)NC1=O)NC(=O)[C@H](Cc1ccccc1)NC(=O)[C@H](CC(=O)O)NC2=O (stereo partly drawn) [I-1145, Ac-PL3-Asp-Phe-B5-Asp-Asp-Ala-Ala-Phe-Leu-PyrS2-2C1F-BztA-Thr-NH2]",IC50,[1],0.018 µM
same,Solubility,Solubility in PBS,10 µM
same,IC50,[2],30.6 µM
"CC(=O)N1CCC[C@]12CC=CCCCC1(CCCC=CCCCOC(=O)N3CC[C@@](C(=O)N[C@@H](Cc4ccccc4Cl)C(=O)N[C@@H](Cc4csc5ccccc45)C(=O)N[C@H](CO)[C@@H](C)O)(C3)NC(=O)[C@H](Cc3ccccc3)NC(=O)[C@H](Cc3ccccc3)NC(=O)[C@H](C)NC(=O)[C@H](C)NC(=O)[C@H](CC(=O)O)NC(=O)[C@H](CC(=O)O)NC1=O)NC(=O)[C@H](CC(C)(C)C)NC(=O)[C@H](CC(=O)O)NC2=O (stereo partly drawn) [I-1311, Ac-PL3-Asp-Npg-B5-Asp-Asp-Ala-Ala-Phe-Phe-PyrS2-2C1F-BztA-Thro1]",IC50,[1],0.038 µM
same,Solubility,Solubility in PBS,10 µM
same,IC50,[2],20.6 µM
"CC(=O)N1CCC[C@]12CC=CCCCC1(CCCC=CCCCOC(=O)N3CC[C@@](C(=O)N[C@@H](Cc4ccccc4C(N)=O)C(=O)N[C@@H](Cc4csc5ccccc45)C(=O)N[C@@H](CCC(N)=O)C(N)=O)(C3)NC(=O)[C@H](Cc3ccccc3)NC(=O)[C@H](Cc3ccccc3)NC(=O)[C@H](C)NC(=O)[C@H](C)NC(=O)[C@H](CC(=O)O)NC(=O)[C@H](CC(=O)O)NC1=O)NC(=O)[C@H](CC(C)(C)C)NC(=O)[C@H](CC(=O)O)NC2=O (stereo partly drawn) [I-1316, Ac-PL3-Asp-Npg-B5-Asp-Asp-Ala-Ala-Phe-Phe-PyrS2-2cbmF-BztA-Gln-NH2]",IC50,[1],0.011 µM
same,Solubility,Solubility in PBS; Solubility (uM),48 µM
same,IC50,[2],6.8 µM
"CC(=O)N1CCC[C@]12CC=CCCCC1(CCCC=CCCCOC(=O)N3CC[C@@](C(=O)N[C@@H](Cc4ccccc4Br)C(=O)N[C@@H](Cc4csc5ccccc45)C(=O)N[C@@H](CCC(N)=O)C(N)=O)(C3)NC(=O)[C@H](CC(N)=O)NC(=O)[C@H](Cc3ccccc3)NC(=O)[C@H](C)NC(=O)[C@H](C)NC(=O)[C@H](CC(=O)O)NC(=O)[C@H](CC(=O)O)NC1=O)NC(=O)[C@H](CC(C)(C)C)NC(=O)[C@H](CC(=O)O)NC2=O (stereo partly drawn) [I-1323, Ac-PL3-Asp-Npg-B5-Asp-Asp-Ala-Ala-Phe-Asn-PyrS2-2BrF-BztA-Gln-NH2]",IC50,[1],0.006 µM
same,Solubility,Solubility in PBS; Solubility (uM),48 µM
same,IC50,[2],11.7 µM
